Assay results reported in patent publication US11292812B2, “3′3′-cyclic dinucleotides” (Institute of Organic Chemistry and Biochemistry, ASCR, V.V.I, priority 2018, dated 2022).

Assays:
AQ STING (G230A-R293Q) = biological target: T1, AQ STING (G230A-R293Q) (Homo sapiens, UniProt Q86WV6, G230A/H232R/R293Q); assay: Differential Scanning Fluorimetry with AQ STING; type: binding; conditions: thermal shift, truncated human AQ STING 0.1 mg/ml, 150 μM CDN; for ΔTm at 150 µM: read-out: DSF ΔTm AQ STING
T1 construct: truncated human WT STING or AQ STING (amino acid residues 140-343); 8xHis (N, cleaved yes); SUMO (N, cleaved yes); made in house; host or cells: E. coli Rosetta-gami B (DE3)
Description: (§1) Purified PCR products were cleaved with restriction enzymes BamHI (cat. #R0136S, NEB, Ipswich, USA) and NotI (cat. #R0189S, NEB, Ipswich, USA) and cloned into the pSUMO vector linearized with the identical enzymes.
(§2) DNase I (cat. #D5025, Sigma Aldrich, Czech Republic) and RNase A (cat. #R6513, Sigma Aldrich, Czech Republic) were added (final concentration 50 μg/ml) together with MgCl2 (final concentration 5 mmol·l^−1) to the homogenate and bacteria were lysed using French Press G-M™ High-Pressure Cell Press Homogenizer (1500 psi, 3 cycles). […] The resin was poured into a chromatography column, washed with 50 ml buffer A (50 mmol·l^−1 TrisCl (pH 8.0), 800 mmol·l^−1 NaCl, 3 mmol·l^−1 β-mercaptoethanol; 10% glycerol; 20 mmol·l^−1 imidazole) and 8-His-SUMO tagged STING proteins were eluted with 15 ml buffer A containing 300 mmol·l^−1 imidazole. […] Proteins were concentrated with Amicon® Ultra-15 10 K device (cat. #UFC901008, Merck Millipore, Billerica, USA) and flash frozen in liquid N2.
(§3) 20 μL solutions of the reaction mixtures were pipetted in triplicates into 96 well optical reaction plates and thermal denaturation of samples were performed on real time PCR cycler (LightCycler® 480 Instrument II—Roche, Basel, Switzerland). The first derivative of the thermal denaturation curves was performed to calculate denaturing temperatures of STING-CDN complexes and STING apoproteins. The thermal shift for each CDN was calculated by subtracting the average denaturing temperature of STING apoprotein from the average denaturing temperature of STING CDN complex.

WT STING [1] = biological target: T2, WT STING (Homo sapiens, UniProt Q86WV6, H232R); assay: Digitonin assay using 293T wtSTING-FL reporter cells; type: cell-based; conditions: 293T wtSTING-FL cells, ISRE firefly luciferase reporter, digitonin buffer 30 minutes, then 5 hours
Description: Two complementary oligonucleotides of the sequence […] […] […] […] […] […] […] The oligonucleotides were mixed in equal molar amounts, hybridized, and cleaved by restriction endonucleases HindIII (cat. #. R0104S, NEB, Ipswich, USA) and BglII (cat. #R0144S, NEB, Ipswich, USA). Ultimately, they were ligated into plasmid pGL4.27 (cat. #E6651, Promega, Madison, USA) linearized with the same enzymes. As result the sequence with four ISRE sites was placed upstream of the minimum promoter of firefly luciferase reporter gene.
After 5 minutes incubation at room temperature (RT), 250 μL of the mixture was added dropwise to the cells in one well. Cells were incubated 36 hours at 37° C. with 5% CO2, and then detached with 0.05% Trypsin and 0.22 g/L EDTA (both cat. #L0941, Biowest, Riverside, USA).
Transfected cells were seeded onto poly-D-lysine coated six well plates at density 50,000 cells per 1 cm^2 in DMEM medium with high glucose containing 10% heat inactivated FBS, 30 μg/mL blasticidin (cat. #ant-bl-05, InvivoGen, San Diego, USA), 0.06 mg/ml Penicillin G and 0.1 mg/ml Streptomycin Sulfate (both cat. #. L0018, Biowest, Riverside, USA). The medium was replenished every 3-4 days until visible colonies of cells resistant to blasticidin were formed.
Blasticidin resistant cells stably expressing WT STING were further transfected with pGL64.27-4×ISRE plasmid following the same procedure as described above. […] Homogeneous culture of stably double transfected cells was prepared by limiting dilution of cells in 96 well plates and wells with cells were selected that originated from a single cell.
The medium was removed next day and three fold serial dilutions of compounds in Digitonin buffer containing 50 mmol·l^−1 HEPES (cat. #H3375, Sigma Aldrich, Czech Republic) pH 7.0, 100 mmol·l^−1 KCl, 3 mmol·l^−1 MgCl2, 0.1 mmol·l^−1 DTT (cat. #D0632, Sigma Aldrich, Czech Republic), 85 mmol·l^−1 Sucrose (cat. #S7903, Sigma Aldrich, Česká Republika), 0.2% BSA (cat. #A2153, Sigma Aldrich, Czech Republic), 1 mmol·l^−1 ATP (cat. #A1852, Sigma Aldrich, Czech Republic), 0.1 mmol·l^−1 GTP (cat. #G8877, Sigma Aldrich, Czech Republic), and 10 μg/mL Digitonin A (cat. #D141, Sigma Aldrich, Czech Republic) were added to the cells. The buffer was removed after 30 minutes incubation at 37° C. with 5% CO2, the cells were washed once with 100 μl of cultivation medium, and 100 μl of medium was added to each well. The plates with cells were incubated for 5 hours at 37° C. with 5% CO2, 50 μl of the medium was removed and 30 μl of ONE-Glo™ Luciferase Assay System reagent (cat. #E6120, Promega, Madison, USA) was added to each well. Luminesce was read on Synergy H1 (Biotek, Winooski, USA).
Target sequence in this assay (Q86WV6 whole entry H232R): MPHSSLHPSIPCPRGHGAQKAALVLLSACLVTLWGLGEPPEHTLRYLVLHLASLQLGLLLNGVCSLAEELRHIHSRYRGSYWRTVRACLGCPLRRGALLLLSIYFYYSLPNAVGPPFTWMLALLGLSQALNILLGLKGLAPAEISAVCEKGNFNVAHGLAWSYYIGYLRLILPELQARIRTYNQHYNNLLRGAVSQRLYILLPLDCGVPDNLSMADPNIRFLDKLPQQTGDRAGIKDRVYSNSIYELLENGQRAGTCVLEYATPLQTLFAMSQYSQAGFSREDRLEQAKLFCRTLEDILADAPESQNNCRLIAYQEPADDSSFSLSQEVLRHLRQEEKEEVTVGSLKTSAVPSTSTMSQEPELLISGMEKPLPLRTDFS

WT STING [2] = biological target: T2, WT STING; assay: Differential Scanning Fluorimetry with WT STING; type: binding; parameters: truncated human WT STING or AQ STING (amino acid residues 140-343); 8xHis (N, cleaved yes); SUMO (N, cleaved yes); made in house; host or cells: E. coli Rosetta-gami B (DE3); conditions: thermal shift, truncated human WT STING 0.1 mg/ml, 150 μM CDN; for ΔTm at 150 µM: read-out: DSF ΔTm WT STING
Description: as §1, §2, §3
Target sequence in this assay (Q86WV6 140-343 H232R): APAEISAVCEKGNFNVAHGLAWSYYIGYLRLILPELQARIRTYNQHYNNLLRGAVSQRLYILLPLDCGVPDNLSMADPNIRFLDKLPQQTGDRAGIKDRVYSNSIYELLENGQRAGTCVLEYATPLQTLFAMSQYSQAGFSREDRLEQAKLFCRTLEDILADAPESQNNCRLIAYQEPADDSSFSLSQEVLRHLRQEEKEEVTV

T1 sequence (Q86WV6 140-343 G230A/H232R/R293Q): as the sequence (Q86WV6 140-343 H232R) above, with G91A, R154Q counted along it

SMILES	DSF ΔTm AQ STING (AQ STING (G230A-R293Q))	EC50 (WT STING [1])	DSF ΔTm WT STING (WT STING [2])	ΔTm at 150 µM (AQ STING (G230A-R293Q))	ΔTm at 150 µM (WT STING [2])
Nc1ncnc2c1ncn2[C@@H]1O[C@@H]2COP(=O)(O)COC3C(O)[C@H](n4cnc5c(N)ncnc54)O[C@@H]3COP(=O)(O)COC2C1O (stereo partly drawn) [Example 10, (2R,3R,3aR,8aR,10R,11R,11aR,16aR)-2,10-bis(6-amino-9H-purin-9-yl)-3,6,11,14-tetrahydroxvdodecahydrodifuro[3,2-e:3′,2′-l][1,4,8,11]tetraoxa[2,9]diphosphacyclotetradecine 6,14-dioxide]	−0.2 °C	> 100000 nM	0.0 °C		
Nc1nc2c(ncn2[C@H]2CC3OCP(=O)(O)OC[C@H]4O[C@@H](n5cnc6c(N)ncnc65)C(F)C4OP(=O)(O)OC[C@H]3O2)c(=O)[nH]1 (stereo partly drawn) [Example 14, 2-amino-9-((2R,3R,3aR,7aR,9R,10aS,15aR)-2-(6-amino-9H-purin-9-yl)-3-fluoro-5,13-dihydroxy-5,13-dioxidodecahydro-2H-difuro[3,2-d:3′,2′-k][1,3,7,10]tetraoxa[2,8]diphosphacyclotridecin-9-yl)-1,9-dihydro-6H-purin-6-one]		90 nM		11.2 °C	3.8 °C
Nc1nc2c(ncn2[C@@H]2O[C@@H]3COP(=O)(O)OC4C(F)[C@H](n5cnc6c(=O)[nH]c(N)nc65)O[C@@H]4COP(=O)(O)COC3C2F)c(=O)[nH]1 (stereo partly drawn) [Example 16, 9,9′-((2R,3R,3aR,7aR,9R,10R,10aR,15aR)-3,10-difluoro-5,13-dihydroxy-5,13-dioxidodecahydro-2H-difuro[3,2-d:3′,2′-k][1,3,7,10]tetraoxa[2,8]diphosphacyclotridecine-2,9-diyl)bis(2-amino-1,9-dihydro-6H-purin-6-one)]		300 nM		10.7 °C	3.1 °C

These reach a lower EC50 (WT STING [1]). Values come first.

DSF ΔTm AQ STING (AQ STING (G230A-R293Q))	EC50 (WT STING [1])	DSF ΔTm WT STING (WT STING [2])	ΔTm at 150 µM (AQ STING (G230A-R293Q))	ΔTm at 150 µM (WT STING [2])	SMILES
	50 nM		11.3 °C	7.3 °C	Nc1nc2c(ncn2[C@@H]2O[C@@H]3COP(=O)(O)OC4C(O)[C@H](n5cnc6c(N)ncnc65)O[C@@H]4COP(=O)(O)COC3C2F)c(=O)[nH]1 (stereo partly drawn) [Example 11, 2-amino-9-((2R,3R,3aS,7aR,9R,10R,10aR,15aR)-2-(6-amino-9H-purin-9-yl)-10-fluoro-3,5,13-trihydroxy-5,13-dioxidodecahydro-2H-difuro[3,2-d:3′,2′-k][1,3,7,10][tetraoxa][2,8]diphosphacyclotridecin-9-yl)-1,9-dihydro-6H-purin-6-one]
	20 nM		17.3 °C	9.3 °C	Nc1nc2c(ncn2[C@@H]2O[C@@H]3COP(=O)(O)OC4C(F)[C@H](n5cnc6c(N)ncnc65)O[C@@H]4COP(=O)(O)COC3C2F)c(=O)[nH]1 (stereo partly drawn) [Example 12]
	12 nM		16.1 °C	9.4 °C	Nc1ncnc2c1ncn2[C@@H]1O[C@@H]2COP(=O)(O)OC3C(F)[C@H](n4cnc5c(N)ncnc54)O[C@@H]3COP(=O)(O)COC2C1F (stereo partly drawn) [Example 13, (2R,3R,3aR,7aR,9R,10R,10aR,15aR)-2,9-bis(6-amino-9H-purin-9-yl)-3,10-difluoro-5,13-dihydroxydecahydro-2H-difuro[3,2-d:3′,2′-k][1,3,7,10]tetraoxa[2,8]diphosphacyclotridecine 5,13-dioxide]
